The results in this text go back to patent publication US20210177824A1, “EXTENDED RELEASE FORMULATIONS FOR INTRA-ARTICULAR APPLICATIONS” (NOVARTIS AG, priority 2017, published 2021).

Where only a bound is given, the exact number is not on record here.

Type in all cases: physicochemical
The nature of one data set: pKa of Compound A. To be noted: weakly basic. The source says: (§1) Compound A can be formulated as immediate release formulations for intra-articular injection. However, due to a high fluid exchange between the synovial fluid and the blood stream, immediate release formulations have a short synovial residence half-life and require frequent injections.
The nature of data set [1]: Aqueous solubility of Compound A as a function of pH.
Source text: as §1

The nature of data set [2]: Particle size and surface area of micronized Compound A micro-crystals. The text has this: Compound A can be micronized using any methods known to those skilled in the art. Un-milled Compound A is subjected to a size reduction process to obtain particle size. The size reduction of Compound A can be performed using any known methods such as by jet-milling technology, and more particularly, by spiral jet-milling technology, fluidized bed opposed jet-milling technology or loop jet-milling technology.
In yet other embodiments, Compound A was micronized to form micro-crystals with maximal particle diameters characterized in Table 1.

For the molecule `O=C(Nc1ccc(Cl)c(Cl)c1)[C@@H]1[C@@H](c2ccncc2)[C@@H]2CC[C@H]1O2` [Compound A, N-(3,4-dichlorophenyl)-3-(pyridin-4-yl)-7-oxabicyclo[2.2.1] heptane-2-carboxamide], in the data set “pKa of Compound A”, the pKa (in general, the pH at which an ionisable group is half protonated) came out at 5.2. For the same molecule, the “pH dependence of solubility” value in data set [1] is on record as “Solubility increases with decreasing pH”. For the same molecule, the “Solubility in neutral pH and basic pH aqueous solutions” value in data set [1] (neutral and basic pH) was “poorly soluble”. For the same molecule, in data set [2], the “Particle size: D10” value is given as ≤1.4 μm, the “Particle size: D50” value is recorded as ≤6.1 μm, the “Particle size: D90” value is ≤29.7 μm and the Surface area is 3 m^2/g.
